What was measured:
[1] = system: subjects with mild-to-moderate AD; test: KEM Formal Concept Analysis association rules (support, confidence, lift) linking patient characteristics with MMSE / ADCS-ADL response; parameters: species or system human
Description: A small cohort, with the number of patient observations orders of magnitude smaller than number of attributes, constitutes an analytical challenge. In this study, an unsupervised Formal Concept Analysis method (FCA), based on Galois lattices, as implemented in the KEM software (v.3.6.2), was used to identify and rank phenotypic and genotypic biomarkers. No link is assumed in this analysis between biomarkers and outcomes, enabling a hypothesis free, data-driven, generation of all relations.
A total of 3,145,630 relations between all available features were explored. Stringent filtering excluded rules containing variables coding for the absence of DNA variants and medium RNA expression groups. Numerical filtering of rules involved the following thresholds: support (n>3), confidence (>50%), lift (≥1.2) and p-value (Fisher Exact Test or Mann-Whitney-Wilcoxon<0.05). The filtering steps led to a subset of 1,019 association rules linking clinical, genomic and transcriptomics patient characteristics with response at multiple time points. A second filtering step focused on relationships with response at week 57 only, raising […], and lift≥1.5, and excluding RNA expression, CYP variants and dose/concentration from Part A. This further reduced the number of rules to 15 associations linked to outcome as measured by Delta (with binarized discretization) or Slope of MMSE or ADCS-ADL at week 57. The 15 rules are presented in order of highest confidence and highest lift. The stringent filtering focused on relationships of response at week 57 (end of Part B), reduced the number of associations to only 15 linked to outcomes as measured by Delta or Slope MMSE or ADCS-ADL (Table 4). […] Higher concentrations improved Delta ADCS-ADL scores (p=0.03) (FIG. 2C).
The KEM® (Knowledge Extraction and Management) v 3.6.2 software was used to systematically extract relations between all variables collected. […]
P-values from two statistical tests were calculated for each association rule. […]

[2] = system: Alzheimer's disease / dementia patients; test: Sigma-1 agonist responder determination and therapy, single-patient examples 6-13; type: in vivo, human; settings: 6 months
Description: A person presents with diagnosed Alzheimer's disease. Their SIGMAR1 gene is analyzed to the extent that it is determined that they carry glutamine at the 2 position of the SIGMAR1 gene. This is the wildtype. They are treated with A2-73 daily with a 30 mg oral dose. For 6 months.
A person presents with diagnosed Alzheimer's disease. A cheek swab is taken and a genotype assay is performed to determine the presence of the SIGMAR1 2P genotype. By such analysis it is determined that the subject carries glutamine at the 2 position of the SigmaR1 gene receptor (protein). They are treated with ANAVEX2-73 daily with a 30 mg oral dose. For 6 months.
A person presents with diagnosed dementia. Their SIGMAR1 gene is analyzed to the extent that it is determined that they carry proline at the 2 position of the SIGMAR1 gene. They are treated with ANAVEX2-73 daily with a 80 mg oral dose in combination with 1.5 mg oral rivastigmine twice per day for 6 months.
A person presents with diagnosed Alzheimer's disease. […] They are treated with the A2-73 daily with a 30 mg oral dose. For 6 months.
A person presents with diagnosed Alzheimer's disease. […] They are treated with A2-73 daily with a 30 mg oral dose. For 6 months.
A person presents with diagnosed dementia. They carry glutamine at the 2 position of the SIGMAR1 gene. It is determined that they carry the KANSL1_p.P1010L/P304L/P946L mutation. They are treated with ANAVEX2-73 daily with a 70 mg oral dose in combination with 7 mg oral memantine daily for 6 months.

SIGMAR1 = target: T1, SIGMAR1 (Mus musculus, UniProt O55242); settings: mice; cited from earlier work
T1 construct: from tissue; host or cells: living mice (in vivo PET)
T1 sequence (O55242 whole entry): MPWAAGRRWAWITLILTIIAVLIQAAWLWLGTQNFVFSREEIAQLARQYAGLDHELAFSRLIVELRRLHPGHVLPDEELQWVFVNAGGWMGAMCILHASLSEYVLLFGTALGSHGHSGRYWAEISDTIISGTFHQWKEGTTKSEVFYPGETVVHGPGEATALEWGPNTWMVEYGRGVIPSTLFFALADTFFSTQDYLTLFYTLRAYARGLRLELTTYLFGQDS

[3] = system: cholinergic muscarinic receptors; settings: mice; cited from earlier work

SMILES: CN(C)CC1CCOC1(c1ccccc1)c1ccccc1.Cl (centres unmarked) [ANAVEX2-73, tetrahydro-N,N-dimethyl-2,2-diphenyl-3-furanmethanamine hydrochloride]
- Confidence, High Concentration Part B -> MMSE Slope Improve ([1]; Week 57, Support 5, nx 8, ny 7): 0.63
- Lift, High Concentration Part B -> MMSE Slope Improve ([1]; Week 57, Support 5, nx 8, ny 7): 1.88
- increase in probability of improved MMSE outcome ([1]; average blood concentration above 4 ng/mL in Part B, week 57): 1.88 fold
- disease course ([2]; Example 6: person, Alzheimer's disease, glutamine at the 2 position of SIGMAR1, 30 mg oral daily): stable and not progress
- disease course ([2]; Example 7: person, Alzheimer's disease, glutamine at the 2 position (cheek swab genotype assay), 30 mg oral daily): stable and not progress
- disease course ([2]; Example 9: person, dementia, proline at the 2 position of SIGMAR1, 80 mg oral daily in combination with 1.5 mg oral rivastigmine twice per day): stable and not progress
- disease course ([2]; Example 10: person, Alzheimer's disease, no COMT rs113895332/rs61143203 mutation, 30 mg oral daily): stable and not progress
- disease course ([2]; Example 11: person, Alzheimer's disease, no SIGMAR1 rs1800866, 30 mg oral daily): stable and not progress
- disease course ([2]; Example 13: person, dementia, glutamine at the 2 position, KANSL1_p.P1010L/P304L/P946L mutation, 70 mg oral daily in combination with 7 mg oral memantine daily): stable and not progress
- target binding by PET scan (SIGMAR1): directly bind its target
- modulation of cholinergic muscarinic receptors [3]: modulate cholinergic muscarinic receptors

— patent US12383526B2, “Optimized sigma-1 agonist method of responder selection and treatment” (ANAVEX LIFE SCIENCES CORP., priority 2018, dated 2025)
